# Tests used:
# Assay in all cases: relative viability (nuclei count vs DMSO), 5 days (fraction); higher = more cells survive
# [1] = compound: COCC[n+]1c2c(n(Cc3cnccn3)c1C)C(=O)c1ccccc1C2=O [YM155] + C[C@]1(O)C[C@@H](c2nc(-c3ccc4ccc(-c5ccccc5)nc4c3)c3c(N)nccn32)C1 [Linsitinib] (partner 1 µM)
# Method in brief: (§1)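 Relative viability is defined as nuclei in treated wells over nuclei in vehicle wells. Duplicate plates were run and medians reported. Lung cancer cell lines in 1536-well plates were dosed by pin tool one day after seeding, with one drug or with a fixed anchor-drug dose plus five library-drug doses (not always all listed) in √10 steps, and nuclei were counted after 5 days.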
# [2] = compound: CC(C)(C)c1cc(NC(=O)Nc2ccc(-c3cn4c(n3)sc3cc(OCCN5CCOCC5)ccc34)cc2)no1 [Quizartinib] + CC1(C)CCC(c2ccc(Cl)cc2)=C(CN2CCN(c3ccc(C(=O)NS(=O)(=O)c4ccc(N[C@H](CCN5CCOCC5)CSc5ccccc5)c(S(=O)(=O)C(F)(F)F)c4)cc3)CC2)C1 [Navitoclax] (partner 0.5 µM)
# Method in brief: as §1
# [3] = compound: COCC[n+]1c2c(n(Cc3cnccn3)c1C)C(=O)c1ccccc1C2=O [YM155] + C[C@@H](Oc1cc(-c2cnn(C3CCNCC3)c2)cnc1N)c1c(Cl)ccc(F)c1Cl [Crizotinib] (partner 1 µM)
# Method in brief: as §1
# [4] = compound: CC(C)(C)c1cc(NC(=O)Nc2ccc(-c3cn4c(n3)sc3cc(OCCN5CCOCC5)ccc34)cc2)no1 [Quizartinib] + CC(=O)c1c(C)c2cnc(Nc3ccc(N4CCNCC4)cn3)nc2n(C2CCCC2)c1=O [Palbociclib] (partner 0.5 µM)
# Method in brief: as §1
Cell Line,relative viability ([1]; first compound 0.002 µM),relative viability ([1]; first compound 0.006325 µM),relative viability ([1]; first compound 0.02 µM),relative viability ([1]; first compound 0.06325 µM),relative viability ([2]; first compound 0.001 µM),relative viability ([2]; first compound 0.003162 µM),relative viability ([2]; first compound 0.01 µM),relative viability ([2]; first compound 0.03162 µM),relative viability ([2]; first compound 0.1 µM),relative viability ([3]; first compound 0.002 µM),relative viability ([3]; first compound 0.006325 µM),relative viability ([3]; first compound 0.02 µM),relative viability ([3]; first compound 0.06325 µM),relative viability ([4]; first compound 0.001 µM),relative viability ([4]; first compound 0.003162 µM),relative viability ([4]; first compound 0.01 µM),relative viability ([4]; first compound 0.03162 µM),relative viability ([4]; first compound 0.1 µM)
SK-MES-1,1.12,1.07,1.12,0.964,1.05,1.1,1.35,1.13,1.26,1.01,0.963,1.07,0.85,0.338,0.286,0.362,0.299,0.292
NCI-H1975,1.03,1.06,0.861,0.842,1.02,1.1,1.19,1.06,1.1,0.941,1.03,0.995,0.633,0.588,0.605,0.599,0.552,0.538
HCC-78,0.615,0.494,0.486,0.598,0.813,0.868,0.766,0.598,0.842,0.328,0.322,0.325,0.371,,0.476,0.494,0.404,0.453
H3255,1.04,0.875,0.917,0.981,0.523,0.442,0.531,0.661,0.468,0.836,0.874,0.87,0.874,0.318,0.358,0.329,0.305,0.309
NCI-H1299,1,0.962,1,0.88,,1.03,1.02,1.01,1.04,0.92,0.953,0.951,0.767,,,,,
NCI-H441,0.461,0.486,0.557,0.353,0.562,0.567,1.29,0.591,1.05,0.676,0.623,0.694,0.509,0.191,0.222,0.169,0.191,0.219
NCI-H1755,0.972,1.03,0.974,0.976,0.925,0.976,1.01,1,0.926,0.882,0.833,0.973,0.859,0.418,0.451,0.471,0.446,0.41
LCLC-97TM1,0.2,0.183,0.161,0.212,,0.669,0.489,0.355,0.413,0.401,0.4,0.442,0.318,0.22,0.226,0.219,0.241,0.236
NCI-H2085,0.822,0.743,0.852,0.517,1.03,1.09,1.12,1.15,1,0.698,0.767,0.77,0.477,0.407,0.486,0.444,0.453,0.388
BEN,0.922,1.03,0.878,0.929,0.0726,0.0683,0.107,0.051,0.0586,0.873,0.987,0.863,1.05,0.388,0.427,0.544,0.472,0.503
NCI-H2126,0.704,0.722,0.704,0.771,0.813,0.823,0.882,0.872,0.828,0.988,0.967,1.07,1.04,0.359,0.347,0.347,0.339,0.346
EMC-BAC-2,0.85,0.83,0.597,0.818,1.13,1.14,1.31,1.18,1.19,0.786,0.765,0.758,0.7,0.456,0.483,0.547,,0.544
NCI-H1793,,0.639,0.886,0.483,0.414,0.304,0.496,0.423,0.331,,,,,0.331,0.277,0.33,0.329,0.34
NCI-H650,0.721,0.857,0.966,0.784,,,,,,0.835,0.655,0.747,0.52,0.355,0.309,0.361,0.336,0.355
NCI-H1437,0.994,1.05,0.989,0.878,0.954,0.994,1.04,0.904,0.8,0.878,0.9,0.902,0.681,0.298,0.288,0.32,0.299,0.261
COR-L 105,1,1.13,1.04,0.672,0.536,0.71,0.907,0.651,0.729,0.907,0.807,0.591,0.385,0.395,0.397,0.396,,0.418
CAL-12T,0.818,0.98,0.9,0.781,1.15,1.1,1.33,1.24,1.32,0.608,0.696,0.551,0.409,0.362,0.404,0.607,0.348,0.0629
IA-LM,0.392,0.697,0.745,0.373,0.836,0.908,0.776,0.836,0.718,0.825,0.766,0.685,0.548,,,,,
ChaGo-K-1,,,,,0.439,1.02,1.02,,1.52,1.1,1.06,1.17,0.784,,0.922,0.918,0.949,0.904
LU99A,0.581,0.503,0.554,0.545,0.796,0.8,0.913,0.776,0.383,0.499,0.549,0.633,0.474,0.39,0.404,0.422,0.432,0.249
EKVX,0.958,1.09,1.04,0.697,0.953,0.88,0.901,0.978,0.992,0.834,1.04,0.919,0.839,,0.354,0.397,0.451,0.283
LC-2-ad,0.806,0.957,0.814,0.753,0.317,0.446,0.518,0.453,0.394,0.446,0.428,0.496,0.453,0.4,0.518,0.528,0.508,0.461

Cell Line,relative viability ([1]; first compound 0.002 µM),relative viability ([1]; first compound 0.006325 µM),relative viability ([1]; first compound 0.02 µM),relative viability ([1]; first compound 0.06325 µM),relative viability ([2]; first compound 0.001 µM),relative viability ([2]; first compound 0.003162 µM),relative viability ([2]; first compound 0.01 µM),relative viability ([2]; first compound 0.03162 µM),relative viability ([2]; first compound 0.1 µM),relative viability ([3]; first compound 0.002 µM),relative viability ([3]; first compound 0.006325 µM),relative viability ([3]; first compound 0.02 µM),relative viability ([3]; first compound 0.06325 µM),relative viability ([4]; first compound 0.001 µM),relative viability ([4]; first compound 0.003162 µM),relative viability ([4]; first compound 0.01 µM),relative viability ([4]; first compound 0.03162 µM),relative viability ([4]; first compound 0.1 µM)
EBC-1,0.8,0.925,0.864,0.755,0.411,0.436,0.524,0.479,0.527,0.186,0.193,0.206,0.202,,,,,
PC-14,0.967,0.984,0.981,0.993,1,0.892,1.09,0.966,0.977,0.948,0.931,1.04,0.818,0.485,0.457,0.488,,0.477
NCI-H1395,1.11,0.889,1.09,1.14,1.05,1.07,1.14,1.59,1.36,,,,,0.549,0.573,0.668,0.591,0.598
NCI-H2405,0.952,0.755,0.83,0.469,0.912,0.858,0.942,0.784,1.15,0.8,0.82,0.831,0.644,0.499,0.519,0.584,0.528,0.556
SW 900,,,,,,,,,,,,,,0.507,0.547,0.63,0.541,0.558
NCI-H2009,1.2,1.25,1.13,0.217,1.13,1.16,1.22,1.03,1.23,1.02,0.992,0.725,0.0795,0.202,0.237,0.273,0.191,0.226
EPLC-272H,1.22,1.19,1.1,1.06,1.06,0.964,1.15,1.18,1.05,0.692,0.814,0.952,1.06,0.304,0.355,0.301,0.311,0.312
LCLC-103H,0.999,0.974,1.16,1.16,,,,,,0.971,1.03,1.03,1,0.38,0.506,0.482,0.513,0.558
NCI-H1650,,,,,0.928,1.25,1.35,,1.24,0.924,0.974,0.717,0.286,0.386,0.329,0.345,,0.321
SW 1573,0.88,0.939,0.769,0.686,1.1,0.864,0.954,0.981,0.968,0.767,0.877,0.902,0.581,0.367,0.367,0.493,,0.434
NCI-H1703,0.474,1.25,0.622,0.411,0.978,0.474,0.234,0.214,0.296,0.612,0.13,0.459,0.175,,,,,
Calu-6,0.946,0.836,0.848,0.175,0.749,0.877,0.923,0.701,0.759,0.728,0.776,0.349,0.135,,,,,
NCI-H2342,,,,,,,,,,,,,,0.482,0.538,0.483,0.615,0.462
NCI-H522,,,,,,,,,,,,,,0.898,0.995,1.01,1.34,0.977
NCI-H1563,1.26,1.38,1.24,1.28,,,,,,0.915,0.802,0.838,0.886,,,,,
ABC-1,0.727,0.457,0.153,0.233,,,,,,0.844,0.341,0.166,0.15,,0.71,0.842,0.769,0.823
NCI-H596,,1.05,1.07,1.07,0.931,0.885,0.985,0.883,0.864,,0.965,0.997,0.974,,,,,
NCI-H2170,,,,,0.765,0.627,0.715,0.573,0.665,1.13,1.18,1.24,1.18,0.385,0.365,0.392,0.367,0.358
NCI-H358,0.708,0.689,0.778,0.253,,,,,,0.538,0.594,0.592,0.214,0.131,0.117,0.134,,0.138
NCI-H661,0.697,0.699,0.54,0.598,,,,,,1.01,0.942,1.05,0.798,0.369,0.348,0.391,0.384,0.339
A549,0.61,0.576,0.544,0.732,1.26,1.11,1.25,,1.13,0.717,0.592,0.654,0.142,,,,,
